Data: patent publication EP0329904A1, “Use of quinolizine and quinolizinone derivatives in the manufacture of medicaments for the treatment of anxiety” (MERRELL DOW PHARMACEUTICALS INC., priority 1988, dated 1989)
Counter-ions that a name gives are not always drawn.

System: Von Bezold-Jarisch Reflex induced by 5-HT
Experiment: Von Bezold-Jarisch Reflex induced by 5-HT injected intravenously
Format: in vivo
Conditions: rat
Excerpt: The activity of these compounds against 5-HT can be assessed in vivo by measurement of the effect of the compound on the Von Bezold-Jarisch Reflex induced by 5-HT injected intravenously into the rat (see Paintal A.S., Physiol. Rev. 53, 159-227, 1973; J.R. Fozard, Naunyn-Schmiedeberg's Arch. Pharmacol., 326, 1984, 36-44). The transient cardiac slowing arises from an increased afferent vagus activity arising from stimulation by 5-HT of sensory afferent fibers in and around the heart.

[1] = doses of 0.01-0.1 mg/kg given intravenously
[2] = doses of 0.25-1 mg/kg given orally

Row | SMILES | suppression of the Von Bezold-Jarisch Reflex response [1] | suppression of the Von Bezold-Jarisch Reflex response [2]
1 | Cc1cc(C)cc(C(=O)OC2CC3CC4CC(C2)N3CC4=O)c1 (stereo not drawn) [endo-8-(3,5-dimethylbenzoyloxy)hexahydro-2,6-methano-2H-quinolizin-3(4H)-one] | suppressed the response dose-dependently | suppressed the response dose-dependently
2 | O=C(OC1CC2CC3CC(C1)N2CC3=O)c1c[nH]c2ccccc12 (stereo not drawn) [endo-hexahydro-8-(3-indolylcarbonyloxy)-2,6-methano-2H-quinolizin-3(4H)one hydrochloride] | suppressed the response dose-dependently | suppressed the response dose-dependently
